Values quoted from earlier work, collected in US20210212962A1, “METHODS AND COMPOSITIONS FOR THE TREATMENT OF GRANULOMA ANNULARE OR SUBCUTANEOUS INFLAMMATION AND NON-INFECTION GRANULOMATOUS DISEASES” (Sol-Gel Technologies Ltd., priority 2020, published 2021).

Conditions: known for tapinarof treatments

CC(C)c1c(O)cc(/C=C/c2ccccc2)cc1O [tapinarof, 3,5-dihydroxy-4-isopropyl-trans-stilbene]
folliculitis as a side effect in tapinarof treatments: 10%
